The values below come from ChEMBL document CHEMBL2074568, “Characterization of the transport properties of human multidrug resistance protein 7 (MRP7, ABCC10)” (Mol Pharmacol, 2003).

Holding throughout (assay type): functional, cell membranes
What all share (parameters): scale not given: the % may be the effect or the level left

Experiment [1] concerns the target T1, ATP-binding cassette sub-family C member 10 (Homo sapiens) (UniProt Q5T3U5).
T1 sequence (whole entry): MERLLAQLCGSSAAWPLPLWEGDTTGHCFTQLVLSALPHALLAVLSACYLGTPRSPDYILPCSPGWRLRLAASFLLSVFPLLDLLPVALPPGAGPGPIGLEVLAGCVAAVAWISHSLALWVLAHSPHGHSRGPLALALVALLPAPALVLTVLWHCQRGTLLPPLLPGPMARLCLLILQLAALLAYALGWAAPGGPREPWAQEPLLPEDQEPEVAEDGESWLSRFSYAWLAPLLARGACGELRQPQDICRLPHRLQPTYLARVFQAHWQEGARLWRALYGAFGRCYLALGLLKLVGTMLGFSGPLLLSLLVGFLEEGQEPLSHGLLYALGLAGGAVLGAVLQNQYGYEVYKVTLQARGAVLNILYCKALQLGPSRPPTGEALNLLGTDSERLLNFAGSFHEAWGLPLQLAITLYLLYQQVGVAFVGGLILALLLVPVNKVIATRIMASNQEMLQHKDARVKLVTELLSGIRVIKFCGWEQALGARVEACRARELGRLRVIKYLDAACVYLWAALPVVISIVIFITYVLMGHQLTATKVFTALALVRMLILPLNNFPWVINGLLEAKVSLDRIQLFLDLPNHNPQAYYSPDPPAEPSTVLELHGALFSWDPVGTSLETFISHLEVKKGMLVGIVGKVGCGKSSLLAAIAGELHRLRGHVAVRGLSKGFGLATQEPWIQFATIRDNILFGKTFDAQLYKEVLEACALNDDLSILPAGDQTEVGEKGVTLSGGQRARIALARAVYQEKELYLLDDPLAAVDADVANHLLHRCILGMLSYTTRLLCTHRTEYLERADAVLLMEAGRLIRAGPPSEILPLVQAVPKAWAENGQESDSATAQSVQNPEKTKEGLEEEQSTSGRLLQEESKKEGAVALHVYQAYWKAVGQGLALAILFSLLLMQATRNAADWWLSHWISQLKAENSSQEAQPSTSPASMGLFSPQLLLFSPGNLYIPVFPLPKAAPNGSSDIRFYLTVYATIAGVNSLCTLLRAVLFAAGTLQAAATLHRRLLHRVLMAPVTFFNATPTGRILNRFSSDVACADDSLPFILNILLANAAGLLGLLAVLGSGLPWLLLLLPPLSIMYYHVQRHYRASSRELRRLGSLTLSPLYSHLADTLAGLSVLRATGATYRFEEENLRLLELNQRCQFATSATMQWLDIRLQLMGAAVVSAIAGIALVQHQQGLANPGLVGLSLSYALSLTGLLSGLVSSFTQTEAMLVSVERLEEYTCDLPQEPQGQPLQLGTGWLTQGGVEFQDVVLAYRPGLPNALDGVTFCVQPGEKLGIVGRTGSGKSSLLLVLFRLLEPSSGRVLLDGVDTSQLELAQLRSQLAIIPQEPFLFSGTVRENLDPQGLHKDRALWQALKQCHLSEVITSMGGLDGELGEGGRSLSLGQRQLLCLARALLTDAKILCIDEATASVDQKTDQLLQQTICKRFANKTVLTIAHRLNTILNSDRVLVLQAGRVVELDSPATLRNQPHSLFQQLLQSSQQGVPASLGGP
Put plainly: TP_TRANSPORTER: inhibition of E217betaG uptake (E217betaG: 1 uM, MTX:100uM) in membrane vesicles from MRP7-expressing HEK293 cells. As to conditions: Membrane vesicle.

Experiment [2] addresses T1, ATP-binding cassette sub-family C member 10 (Homo sapiens). Briefly: TP_TRANSPORTER: inhibition of E217betaG uptake (E217betaG: 1 uM, Glycholithocholate-3-sulfate: 30 uM) in membrane vesicles from MRP7-expressing HEK293 cells. To be noted: Membrane vesicle.
Experiment [3] has the same target. Put plainly: TP_TRANSPORTER: inhibition of E217betaG uptake (E217betaG: 1 uM, Estradiol-3-glucuronide: 100 uM) in membrane vesicles from MRP7-expressing HEK293 cells. To be noted: Membrane vesicle.
For experiment [4] the target is unchanged. Put plainly: TP_TRANSPORTER: inhibition of E217betaG uptake (E217betaG: 1 uM, 16alpha,17beta-Estriol 3-sulfate: 100 uM) in membrane vesicles from MRP7-expressing HEK293 cells. As to conditions: Membrane vesicle.
The target is the same in experiment [5]. Briefly: TP_TRANSPORTER: inhibition of E217betaG uptake (E217betaG: 1 uM, Trequinsin: 100 uM) in membrane vesicles from MRP7-expressing HEK293 cells. To be noted: Membrane vesicle.
The target is the same in experiment [6]. Briefly: TP_TRANSPORTER: inhibition of E217betaG uptake (E217betaG: 1 uM, beta-Estradiol: 100 uM) in membrane vesicles from MRP7-expressing HEK293 cells. As to conditions: Membrane vesicle.
Experiment [7] shares this target. Put plainly: TP_TRANSPORTER: inhibition of E217betaG uptake (E217betaG: 1 uM, Glycocholate: 100uM) in membrane vesicles from MRP7-expressing HEK293 cells. As to conditions: Membrane vesicle.
Experiment [8] has the same target. Briefly: TP_TRANSPORTER: inhibition of E217betaG uptake (E217betaG: 1 uM, E2 3SO4 17betaG: 100uM) in membrane vesicles from MRP7-expressing HEK293 cells. To be noted: Membrane vesicle.
Experiment [9] has the same target. Briefly: TP_TRANSPORTER: inhibition of E217betaG uptake (E217betaG: 1 uM, 16alpha,17beta-Estriol 3-(beta-D-glucuronide): 100 uM) in membrane vesicles from MRP7-expressing HEK293 cells. As to conditions: Membrane vesicle.
Experiment [10] shares this target. Put plainly: TP_TRANSPORTER: inhibition of E217betaG uptake (E217betaG: 1 uM, LTC4:1uM) in membrane vesicles from MRP7-expressing HEK293 cells. As to conditions: Membrane vesicle.
Experiment [11] has the same target. Briefly: TP_TRANSPORTER: inhibition of E217betaG uptake (E217betaG: 1 uM, Taxol: 30 uM) in membrane vesicles from MRP7-expressing HEK293 cells. As to conditions: Membrane vesicle.
The target is the same in experiment [12]. Briefly: TP_TRANSPORTER: inhibition of E217betaG uptake (E217betaG: 1 uM, 16alpha,17beta-Estriol 16-(beta-D-glucuronide): 100 uM) in membrane vesicles from MRP7-expressing HEK293 cells. To be noted: Membrane vesicle.
The target is the same in experiment [13]. Put plainly: TP_TRANSPORTER: inhibition of E217betaG uptake (E217betaG: 1 uM, Vincristine: 30 uM) in membrane vesicles from MRP7-expressing HEK293 cells. As to conditions: Membrane vesicle.
Experiment [14] has the same target. Put plainly: TP_TRANSPORTER: inhibition of E217betaG uptake (E217betaG: 1 uM, Doxorubicin: 30 uM) in membrane vesicles from MRP7-expressing HEK293 cells. To be noted: Membrane vesicle.
Experiment [15] has the same target. Briefly: TP_TRANSPORTER: inhibition of E217betaG uptake (E217betaG: 1 uM, Sulfinpyrazone:30uM) in membrane vesicles from MRP7-expressing HEK293 cells. As to conditions: Membrane vesicle.
For experiment [16] the target is unchanged. Put plainly: TP_TRANSPORTER: inhibition of E217betaG uptake (E217betaG: 1 uM, 17alpha-Ethynyl-17beta-Estradiol: 100 uM) in membrane vesicles from MRP7-expressing HEK293 cells. To be noted: Membrane vesicle.
Experiment [17] shares this target. Put plainly: TP_TRANSPORTER: inhibition of E217betaG uptake (E217betaG: 1 uM, DNP-SG:10uM) in membrane vesicles from MRP7-expressing HEK293 cells. To be noted: Membrane vesicle.
For experiment [18] the target is unchanged. Briefly: TP_TRANSPORTER: inhibition of E217betaG uptake (E217betaG: 1 uM, Sildefafil:100uM) in membrane vesicle from MRP7-expressing HEK293 cells.
For experiment [19] the target is unchanged. Briefly: TP_TRANSPORTER: inhibition of E217betaG uptake (E217betaG: 1 uM, Verapamil: 100 uM) in membrane vesicles from MRP7-expressing HEK293 cells. As to conditions: Membrane vesicle.
Experiment [20] has the same target. Briefly: TP_TRANSPORTER: inhibition of E217betaG uptake (E217betaG: 1 uM, Zaprinast: 100uM) in membrane vesicles from MRP7-expressing HEK293 cells. As to conditions: Membrane vesicle.
Experiment [21] has the same target. Put plainly: TP_TRANSPORTER: inhibition of E217betaG uptake (E217betaG: 1 uM, VP-16: 30 uM) in membrane vesicles from MRP7-expressing HEK293 cells. As to conditions: Membrane vesicle.

With `CN(Cc1cnc2nc(N)nc(N)c2n1)c1ccc(C(=O)N[C@@H](CCC(=O)O)C(=O)O)cc1`, the Activity in experiment [1] was 74%.

For `C[C@H](CCC(=O)NCC(=O)O)[C@H]1CC[C@H]2[C@@H]3CC[C@@H]4C[C@H](OS(=O)(=O)O)CC[C@]4(C)[C@H]3CC[C@]12C`, the Activity in experiment [2] is 41.8%. As to `C[C@]12CC[C@@H]3c4ccc(O[C@@H]5O[C@H](C(=O)O)[C@@H](O)[C@H](O)[C@H]5O)cc4CC[C@H]3[C@@H]1CC[C@@H]2O`, in experiment [3], the Activity is 60.1%.

Consider `C[C@]12CC[C@@H]3c4ccc(OS(=O)(=O)O)cc4CC[C@H]3[C@@H]1C[C@@H](O)[C@@H]2O`, for which the Activity in [4] was 49.4%. On to `COc1cc2c(cc1OC)-c1c/c(=N\c3c(C)cc(C)cc3C)n(C)c(=O)n1CC2`, for which the Activity in experiment [5] is 44.3%. For the compound `C[C@]12CC[C@@H]3c4ccc(O)cc4CC[C@H]3[C@@H]1CC[C@@H]2O`, in experiment [6], the Activity was 60.7%. On to `C[C@H](CCC(=O)NCC(=O)O)[C@H]1CC[C@H]2[C@@H]3[C@H](O)C[C@@H]4C[C@H](O)CC[C@]4(C)[C@H]3C[C@H](O)[C@]12C`, for which, in [7], the Activity is 58.4%. For `C[C@]12CC[C@@H]3c4ccc(OS(=O)(=O)O)cc4CC[C@H]3[C@@H]1CC[C@@H]2O[C@@H]1O[C@H](C(=O)O)[C@@H](O)[C@H](O)[C@H]1O`, in [8], the Activity is 45.1%.

`C[C@]12CC[C@@H]3c4ccc(O[C@@H]5O[C@H](C(=O)O)[C@@H](O)[C@H](O)[C@H]5O)cc4CC[C@H]3[C@@H]1C[C@@H](O)[C@@H]2O`: in [9], the Activity was 58.5%. For the compound `CCCCC/C=C\C\C=C/C=C/C=C/[C@@H](SC[C@@H](NC(=O)CC[C@H](N)C(=O)O)C(=O)NCC(=O)O)[C@@H](O)CCCC(=O)O`, the Activity in experiment [10] was 40.4%.

As to `CC(=O)O[C@H]1C(=O)[C@@]2(C)[C@H]([C@H](OC(=O)c3ccccc3)[C@]3(O)C[C@H](OC(=O)[C@H](O)[C@@H](NC(=O)c4ccccc4)c4ccccc4)C(C)=C1C3(C)C)[C@]1(OC(C)=O)CO[C@@H]1C[C@@H]2O`, the Activity in experiment [11] is 22.1%. Consider `C[C@]12CC[C@@H]3c4ccc(O)cc4CC[C@H]3[C@@H]1C[C@@H](O[C@@H]1O[C@H](C(=O)O)[C@@H](O)[C@H](O)[C@H]1O)[C@@H]2O`, for which the Activity in experiment [12] is 53%. In the case of `CC[C@]1(O)C[C@H]2CN(CCc3c([nH]c4ccccc34)[C@@](C(=O)OC)(c3cc4c(cc3OC)N(C=O)[C@H]3[C@@](O)(C(=O)OC)[C@H](OC(C)=O)[C@]5(CC)C=CCN6CC[C@]43[C@@H]65)C2)C1`, the Activity in [13] is 18.4%. Turning to `COc1cccc2c1C(=O)c1c(O)c3c(c(O)c1C2=O)C[C@@](O)(C(=O)CO)C[C@@H]3O[C@H]1C[C@H](N)[C@H](O)[C@H](C)O1`, the Activity in experiment [14] was 18.2%. As for `O=C1C(CC[S+]([O-])c2ccccc2)C(=O)N(c2ccccc2)N1c1ccccc1` (stereo unspecified), the Activity in experiment [15] was 39.5%. Regarding `C#C[C@]1(O)CC[C@H]2[C@@H]3CCc4cc(O)ccc4[C@H]3CC[C@@]21C`, the Activity in [16] is 51.4%. Take `N[C@@H](CCC(=O)N[C@H](CSc1ccc([N+](=O)[O-])cc1[N+](=O)[O-])C(=O)NCC(=O)O)C(=O)O`: the Activity in [17] was 46.4%. As for `CCCc1nn(C)c2c(=O)[nH]c(-c3cc(S(=O)(=O)N4CCN(C)CC4)ccc3OCC)nc12`, in [18], the Activity is 41%.

For `COc1ccc(CCN(C)CCCC(C#N)(c2ccc(OC)c(OC)c2)C(C)C)cc1OC` (stereo unspecified), the Activity in experiment [19] is 62.3%.

For the compound `CCCOc1ccccc1-c1nc2[nH]nnc2c(=O)[nH]1`, the Activity in [20] is 48.3%.

In the case of `COc1cc([C@@H]2c3cc4c(cc3[C@@H](O[C@@H]3O[C@@H]5CO[C@@H](C)O[C@H]5[C@H](O)[C@H]3O)[C@H]3COC(=O)[C@H]23)OCO4)cc(OC)c1O`, the Activity in experiment [21] was 49.5%.
